Measured values as given in patent US7989454B2, “Leukotriene B4 inhibitors” (Hoffmann-La Roche Inc., priority 2002, dated 2011).
pIC50: −log10 of the molar value.

What follows are compounds tested on BLT1 and BLT2 receptors (assay: Ca2+ flux assay for LTB4 antagonist assay (HL-60 FLIPR)). Settings: retinoic acid induced HL-60 cells endogenously expressing BLT1 and BLT2; inhibition of LTB4-induced Ca2+ flux; 30 min compound preincubation; read-out: LTB4 antagonism (HL-60 FLIPR).
Type: cell-based, Human
Procedure: Ca^2+ Flux Assay for LTB4 Antagonist Assay
Human leukemia HL-60 cells endogenously expressing BLT1 and BLT2 receptors were cultured in RPMI-1640 medium supplemented with 20% fetal bovine serum, 2 mM glutamine, 100 U/mL penicillin and 100 ug/mL streptomycin.
Seventy two hours prior to experiment cells are counted using ViaCount reagent, centrifuged and resuspended at 2.0×10^5 cells/ml density with the complete growth media containing 1 μM retinoic acid (Sigma).
On a day of the experiment loading buffer (Calcium-3 Assay Kit, Molecular Devices) was prepared by dissolving the contents of one vial (Express Kit) into 500 ml Hank's Balanced Salt Solution containing 20 mM HEPES and 5 mM probenecid. Equal volume of the loading buffer was mixed with the replacement buffer (Hank's Balanced Salt Solution containing 20 mM HEPES, 0.05% BSA and 5 mM probenecid). Retinoic acid induced HL-60 cells were counted using ViaCount reagent, centrifuged and resuspended at 2.0×10^6 cells/mL density with the loading buffer/replacement buffer, dispensed into 384 well black/clear microplates (Falcon)(25 μL/well) and placed in a 37° C./5% CO2 incubator for 1 hour.
During the incubation, test compounds were prepared at 6× the desired concentration in HBSS/20 mM HEPES/0.05% BSA as well as LTB4 (Biomol) was prepared at 2.2× concentration in HBSS/20 mM HEPES/0.5% BSA buffer.
After the incubation, both the cell and compound plates were brought to the FLIPR and 5 μL of the diluted compounds were transferred to the cell plates by the FLIPR. Plates were then incubated for 30 min at room temperature. After the ½ hour incubation, plates were returned to the FLIPR and 25 μL of 2.2×LTB4 was added to the cell plates. During the assay, fluorescence readings were taken simultaneously from all 384 wells of the cell plate every 1.5 seconds. Five readings were taken to establish a stable baseline, then 25 μL (LTB4) of sample was rapidly and simultaneously added to each well of the cell plate. The fluorescence was continuously monitored before, during and after sample addition for a total elapsed time of 100 seconds. Responses (increase in peak fluorescence) in each well following agonist addition was determined. The initial fluorescence reading from each well, prior to ligand stimulation, was used a zero baseline value for the data from that well. The responses are expressed as % inhibition of the neutral control (neural control: wells that received buffer plus DMSO but no test compound).

Structure (SMILES) | pIC50
O=C(O)CCCOc1cccc(CCCCCCOc2cc(C(=O)NCc3ccccc3)cc(-c3c(F)cccc3F)c2)c1CCC(=O)O [Example 5, 4-[3-[6-(5-Benzylcarbamoyl-2′,6′-difluoro-biphenyl-3-yloxy)-hexyl]-2-(2-carboxy-ethyl)-phenoxy]-butyric acid] | 6.52
Cc1cscc1-c1cc(OCCCCCCc2cccc(OCCCC(=O)O)c2CCC(=O)O)cc(C(=O)N2CCN(C)CC2)c1 [Example 24, 4-(2-(2-Carboxy-ethyl)-3-{6-[3-(4-methyl-piperazine-1-carbonyl)-5-(4-methyl-thiophen-3-yl)-phenoxy]-hexyl}-phenoxy)-butyric acid] | 7.33
CN1CCN(C(=O)c2cc(OCCCCCCc3cccc(OCCCC(=O)O)c3CCC(=O)O)cc(-c3ccccc3)c2)CC1 [Example 28, 4-(2-(2-Carboxy-ethyl)-3-{6-[5-(4-methyl-piperazine-1-carbonyl)-biphenyl-3-yloxy]-hexyl}-phenoxy)-butyric acid] | 9.66
CN1CCCN(C(=O)c2cc(OCCCCCCc3cccc(OCCCC(=O)O)c3CCC(=O)O)cc(-c3ccc4c(c3)OCO4)c2)CC1 [Example 36, 4-[3-{6-[3-Benzo[1,3]dioxol-5-yl-5-(4-methyl-[1,4]diazepane-1-carbonyl)-phenoxy]-hexyl}-2-(2-carboxy-ethyl)-phenoxy]-butyric acid] | 9.85
O=C(O)CCCOc1cccc(CCCCCCOc2cc(C(=O)N3CCCCC3)cc(-c3ccc4c(c3)OCO4)c2)c1CCC(=O)O [Example 42, 4-[3-{6-[3-Benzo[1,3]dioxol-5-yl-5-(piperidine-1-carbonyl)-phenoxy]-hexyl}-2-(2-carboxy-ethyl)-phenoxy]-butyric acid] | 9.68
O=C(O)CCCOc1cccc(CCCCCCOc2cc(C(=O)N3CCNCC3)cc(-c3ccc4c(c3)OCO4)c2)c1CCC(=O)O [Example 44, 4-[3-{6-[3-Benzo[1,3]dioxol-5-yl-5-(piperazine-1-carbonyl)-phenoxy]-hexyl}-2-(2-carboxy-ethyl)-phenoxy]-butyric acid] | 10.10
CC1CCCN(C(=O)c2cc(OCCCCCCc3cccc(OCCCC(=O)O)c3CCC(=O)O)cc(-c3ccc4c(c3)OCO4)c2)C1 (stereo not shown) [Example 46, 4-[3-{6-[3-Benzo[1,3]dioxol-5-yl-5-(3-methyl-piperidine-1-carbonyl)-phenoxy]-hexyl}-2-(2-carboxy-ethyl)-phenoxy]-butyric acid] | 8.13
O=C(O)CCCOc1cccc(CCCCCCOc2cc(C(=O)NC3CC3)cc(-c3ccc4c(c3)OCO4)c2)c1CCC(=O)O [Example 51, 4-[3-[6-(3-Benzo[1,3]dioxol-5-yl-5-cyclopropylcarbamoyl-phenoxy)-hexyl]-2-(2-carboxy-ethyl)-phenoxy]-butyric acid] | 10.10
CN(C)C(=O)c1cc(OCCCCCCc2cccc(OCCCC(=O)O)c2CCC(=O)O)cc(-c2ccc3c(c2)OCO3)c1 [Example 53, 4-[3-[6-(3-Benzo[1,3]dioxol-5-yl-5-dimethylcarbamoyl-phenoxy)-hexyl]-2-(2-carboxy-ethyl)-phenoxy]-butyric acid] | 10.00
NC(=O)c1cc(OCCCCCCc2cccc(OCCCC(=O)O)c2CCC(=O)O)cc(-c2ccc3c(c2)OCO3)c1 [Example 55, 4-[3-[6-(3-Benzo[1,3]dioxol-5-yl-5-carbamoyl-phenoxy)-hexyl]-2-(2-carboxy-ethyl)-phenoxy]-butyric acid] | 9.70
O=C(O)CCCOc1cccc(CCCCCCOc2cc(C(=O)NC3CCC3)cc(-c3ccc4c(c3)OCO4)c2)c1CCC(=O)O [Example 61, 4-[3-[6-(3-Benzo[1,3]dioxol-5-yl-5-cyclobutylcarbamoyl-phenoxy)-hexyl]-2-(2-carboxy-ethyl)-phenoxy]-butyric acid] | 9.68
O=C(O)CCCOc1cccc(CCCCCCOc2cc(C(=O)NC3CCC3)cc(-c3cccc(F)c3)c2)c1CCC(=O)O [Example 67, 4-{2-(2-Carboxy-ethyl)-3-[6-(5-cyclobutylcarbamoyl-3′-fluoro-biphenyl-3-yloxy)-hexyl]-phenoxy}-butyric acid] | 7.28
CCN(C)C(=O)c1cc(OCCCCCCc2cccc(OCCCC(=O)O)c2CCC(=O)O)cc(-c2ccc3c(c2)OCO3)c1 [Example 73, 4-[3-{6-[3-Benzo[1,3]dioxol-5-yl-5-(ethyl-methyl-carbamoyl)-phenoxy]-hexyl}-2-(2-carboxy-ethyl)-phenoxy]-butyric acid] | 9.60
CNC(=O)c1cc(OCCCCCCc2cccc(OCCCC(=O)O)c2CCC(=O)O)cc(-c2ccc3c(c2)OCCO3)c1 [Example 77, 4-(2-(2-Carboxy-ethyl)-3-{6-[3-(2,3-dihydro-benzo[1,4]dioxin-6-yl)-5-methylcarbamoyl-phenoxy]-hexyl}-phenoxy)-butyric acid] | 8.62
CN(C)C(=O)c1cc(OCCCCCCc2cccc(OCCCC(=O)O)c2CCC(=O)O)cc(-c2ccsc2)c1 [Example 85, 4-{2-(2-Carboxy-ethyl)-3-[6-(3-dimethylcarbamoyl-5-thiophen-3-yl-phenoxy)-hexyl]-phenoxy}-butyric acid] | 9.55
Cc1ccc(-c2cc(OCCCCCCc3cccc(OCCCC(=O)O)c3CCC(=O)O)cc(C(=O)N(C)C)c2)cc1F [Example 105, 4-{2-(2-Carboxy-ethyl)-3-[6-(5-dimethylcarbamoyl-3′-fluoro-4′-methyl-biphenyl-3-yloxy)-hexyl]-phenoxy}-butyric acid] | 9.10
Cc1ccc(-c2cc(OCCCCCCc3cccc(OCCCC(=O)O)c3CCC(=O)O)cc(C(=O)N(C)C)c2)cc1 [Example 112, 4-{2-(2-Carboxy-ethyl)-3-[6-(5-dimethylcarbamoyl-4′-methyl-biphenyl-3-yloxy)-hexyl]-phenoxy}-butyric acid] | 9.62
CN1CCN(C(=O)c2cc(CCCCCCCc3cccc(OCCCC(=O)O)c3CCC(=O)O)cc(-c3ccccc3)c2)CC1 [Example 118, 4-(2-(2-Carboxy-ethyl)-3-{7-[5-(4-methyl-piperazine-1-carbonyl)-biphenyl-3-yl]-heptyl}-phenoxy)-butyric acid] | 7.71
CN(C)C(=O)c1cc(C#CCCCCCc2cccc(OCCCC(=O)O)c2CCC(=O)O)cc(-c2ccc(O)cc2)c1 [Example 122, 4-{2-(2-Carboxy-ethyl)-3-[7-(5-dimethylcarbamoyl-4′-hydroxy-biphenyl-3-yl)-hept-6-ynyl]-phenoxy}-butyric acid] | 7.81
